{"source": "paper PMC3530200", "about": "(Bioorganic & medicinal chemistry letters, 2012)", "biological_target": "Plk1 PBD (Homo sapiens, UniProt P53350)", "sequence (P53350 whole entry)": "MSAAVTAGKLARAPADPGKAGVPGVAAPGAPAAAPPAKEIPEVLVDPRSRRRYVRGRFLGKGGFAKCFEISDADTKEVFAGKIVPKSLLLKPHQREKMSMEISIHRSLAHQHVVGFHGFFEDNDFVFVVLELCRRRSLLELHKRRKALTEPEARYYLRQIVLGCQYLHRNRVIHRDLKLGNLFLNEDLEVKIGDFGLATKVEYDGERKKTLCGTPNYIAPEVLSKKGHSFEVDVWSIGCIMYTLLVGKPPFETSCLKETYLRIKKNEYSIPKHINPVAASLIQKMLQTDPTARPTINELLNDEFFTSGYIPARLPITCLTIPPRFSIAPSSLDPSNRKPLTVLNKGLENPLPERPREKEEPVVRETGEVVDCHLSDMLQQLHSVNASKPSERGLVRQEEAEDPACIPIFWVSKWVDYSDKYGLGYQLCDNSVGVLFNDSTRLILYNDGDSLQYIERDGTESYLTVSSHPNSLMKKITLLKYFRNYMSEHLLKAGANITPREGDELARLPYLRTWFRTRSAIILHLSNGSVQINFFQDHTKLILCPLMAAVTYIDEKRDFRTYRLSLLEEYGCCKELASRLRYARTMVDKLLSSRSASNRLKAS", "assay": "ELISA-based Plk1 PBD-binding inhibition assay", "note": "Numbered stars: 1 amine (or outer) side, 2 acyl side, 3 side chain; on linkers, the order of the positions; unused ones are H or OH. Square brackets hold non-standard residues; d marks the D form. Peptide text beside a SMILES is read from it. X2 = O=C([C@H](Cc1cn(CCCCCCCCc2ccccc2)c2ccccc12)N[*:1])[*:2]; X1 = O=C([C@H](Cc1cn(CCCCCCCCc2ccccc2)cn1)N[*:1])[*:2]; pT = C[C@@H](OP(=O)(O)O)[C@H](N)C(=O)O", "data": [{"compound": "CC(=O)N1CCC[C@H]1C(=O)N[C@@H](CC(C)C)C(=O)N[C@@H](Cc1cn(CCCCCCCCc2ccccc2)c2ccccc12)C(=O)N[C@@H](CO)C(=O)N[C@H](C(N)=O)[C@@H](C)OP(=O)(O)O", "note": "[1d] (Ac-PL[X2]S[pT]-NH2; N-terminus and C-terminus assumed)", "values": [{"measurement": "fold less affinity than 1c", "setting": "ratio of IC50 relative to 1c", "value": "approximately 30 fold"}]}, {"compound": "PLHST [reference compound]", "values": [{"measurement": "affinity of non-phosphorylated control peptide", "setting": "even at the highest concentration tested (300 μM)", "value": "negligible affinity"}]}, {"compound": "CC(=O)N1CCC[C@H]1C(=O)N[C@@H](CC(C)C)C(=O)N[C@@H](Cc1cn(CCCCCCCCc2ccccc2)cn1)C(=O)N[C@@H](CO)C(=O)N[C@H](C(N)=O)[C@@H](C)OP(=O)(O)O", "note": "[1c] (Ac-PL[X1]S[pT]-NH2; N-terminus and C-terminus assumed)", "values": [{"measurement": "fold less affinity than 1b", "setting": "ratio of IC50 relative to 1b", "value": "approximately 50 fold"}]}]}
